Some results are limits rather than exact numbers.

Data set [1] relates to N. fowleri trophozoites. Description: Intracellular ATP levels (CellTiter-Glo). The data set is classed as cell-based, Naegleria fowleri. To be noted: treated with IC90, 24 h; negative control set as 100% ATP. Here is the method:
(§1) To evaluate the induction of PCD, N. fowleri strains ATCC® 30808™ and ATCC® 30215™ were treated with the IC90 concentration of the compounds 7 and 10 for 24 h at 37 °C. After incubation, specific fluorescent markers were used to assess various detectable metabolic events, following the manufacturers’ instructions for each assay. Amphotericin B was used as a positive control, and untreated amoebae served as a negative control. Fluorescence imaging was performed using EVOS M5000 Cell Imaging System (Life Technologies, Madrid, Spain) and confocal microscope Leica DMI 4000 B equipped with Leica Application Suite X software version 3.5.5.19976 and Leica HC PL APO 63x/1.40 OIL CS2 objective (Leica Microsystems, Wetzlar, Germany). The fluorescence obtained was expressed as mean ± standard deviation from at least three independent experiments.
Adenosine triphosphate (ATP) production was quantified using the CellTiter-Glo® luminescent cell viability assay (Promega, Madrid, Spain). Amoebae were treated with the compounds, and an equal volume of reagent was added per well. Following cell lysis, the emitted luminescence, which is directly proportional to ATP content, was measured using the EnSpire® Multimode Plate Reader (PerkinElmer, Madrid, Spain). […]
(In general: In ATP-based viability assays light output follows the ATP content of the culture.)

Data set [2] has as its system N. fowleri ATCC® 30808™ cyst stage. Description: In vitro cysticidal activity against N. fowleri cysts (alamarBlue), strain ATCC 30808. The data set is classed as cell-based, Naegleria fowleri. As for the experimental part:
Following the assays against trophozoites, the compounds were further evaluated for their activity against the cyst stage of N. fowleri (ATCC® 30808™ and ATCC® 30215™). To induce cyst formation, the trophozoites were centrifuged, resuspended in MYAS medium, and incubated under slight agitation at room temperature for 10 days. After this, mature cysts were harvested, pretreated with 0.5% SDS, and seeded in a 96-well microtiter plate at 2 × 10^5 cells/mL. The drugs were tested in serial dilutions, and after 24 h of incubation at 37 °C, the medium was replaced with fresh Bactocasitone medium. The colorimetric alamarBlue® assay was used to assess cyst viability, with 10 µL of reagent added to each well. The plates were incubated for an additional 72 h at 37 °C, and fluorescence was measured using the EnSpire® Multimode Plate Reader (PerkinElmer, Madrid, Spain). The results were compared to a negative control (untreated cysts) and a positive control (amphotericin B and miltefosine). The IC50 values were determined through nonlinear regression analysis.

The test system of data set [3] is N. fowleri trophozoites. Description: Cytoskeletal integrity (phalloidin-TRITC actin staining). The data set is classed as cell-based, Naegleria fowleri. To be noted: IC90; compound 7 on ATCC 30808, compound 10 on ATCC 30215. As for the experimental part: as §1
Cytoskeletal disruption in treated amoebae was evaluated by staining with phalloidin conjugated to tetramethylrhodamine B isothiocyanate (phalloidin- TRITC), which binds specifically to filamentous actin, emitting red fluorescence. DAPI staining was used in parallel to visualize nuclear DNA, emitting blue fluorescence. […] Following washing with PBS, fluorescence images were captured with a 63x oil immersion objective.

Data set [4] relates to N. fowleri trophozoites. Description: Plasma membrane permeability (SYTOX Green). To be noted: IC90, 24 h; compound 7 on ATCC 30808, compound 10 on ATCC 30215, amphotericin B on both. Format: cell-based, Naegleria fowleri. As for the experimental part:
as §1
After treatment, SYTOX™ Green nucleic acid stain (Life Technologies, Madrid, Spain) was added to each well at a final concentration of 1 μg/mL and incubated for 15 min in the dark. […] In contrast, viable cells with intact membranes exclude the dye and remain non-fluorescent. Untreated trophozoites were used as negative controls.

Data set [5] can be described thus: In vitro cytotoxicity on murine macrophages (alamarBlue). The data set is classed as cell-based. To be noted: mouse, J774A.1 murine macrophage cell line (ATCC TIB-67), mean ± SD. Here is the method:
The in vitro activity of the tested compounds against Naegleria fowleri trophozoites was evaluated using two clinical strains obtained from the American Type Culture Collection (ATCC® 30808™ and ATCC® 30215™). Trophozoites were cultured axenically at 37 °C in 2% (w/v) Bactocasitone medium (Thermo Fisher Scientific, Madrid, Spain), supplemented with 10% (v/v) fetal bovine serum (FBS), […] penicillin G sodium salt, and 0.5 mg/mL streptomycin sulfate (Sigma-Aldrich, Madrid, Spain). For cytotoxicity assessment, murine macrophages from the J774A.1 cell line (ATCC® TIB-67) were cultured in Dulbecco’s Modified Eagle’s Medium (DMEM) supplemented with 10% (v/v) FBS and 10 μg/mL gentamicin sulfate (Sigma-Aldrich, Madrid, Spain). The macrophages were maintained at 37 °C in a 5% CO2 atmosphere.
The cytotoxicity of the compounds was assessed against the murine macrophage cell line J774A.1 (ATCC® TIB-67™). Cells were maintained at 37 °C in a 5% CO2 atmosphere in DMEM medium. In the assay, different concentrations of the compounds were added to the cells in a 96-well microtiter plate, and after 24 h of incubation, 10 µL of alamarBlue® reagent was added. The fluorescence intensity was measured using the EnSpire® Multimode Plate Reader (PerkinElmer, Madrid, Spain). The cytotoxic concentration required to reduce cell viability by 50% (CC50) was determined through nonlinear regression analysis using GraphPad Prism 9 software. The results were compared with those obtained against trophozoites to calculate the selectivity index (S.I.) for N. fowleri.
Background: The colour change of resazurin is a common sign of viable cells or microbes.

Data set [6] has as its system N. fowleri trophozoites. The data set is described as follows: Intracellular reactive oxygen species (CellROX Deep Red). Format: cell-based, Naegleria fowleri. Conditions: IC90, 24 h; compound 7 on ATCC 30808 (p < 0.05), compound 10 on ATCC 30215 (p < 0.01). Here is the method:
as §1
The oxidative stress induced by the generation of ROS in N. fowleri was evaluated using the CellROX® Deep Red reagent (Invitrogen, Thermo Fisher Scientific, Madrid, Spain). Following incubation, cells were stained with the dye at a final concentration of 5 μM and then incubated for an additional 30 min. The reagent enters cells in response to elevated ROS levels, emitting red fluorescence at approximately 644/665 nm. Increased fluorescence intensity indicated higher levels of ROS accumulation, reflecting elevated oxidative stress in the treated cells.

The term IC50 denotes the concentration that inhibits the measured activity by half. A high value points to a need for much substance. A word on the CC50: it is the concentration at which the toxic effect on the cells reaches its halfway point. As for `COC(=O)[C@]12CC[C@@H](C)[C@H](C)C1C1=CCC3[C@@]4(C)CC[C@H](OC(=O)CCC(=O)O)C(C)(C)C4CC[C@@]3(C)[C@]1(C)CC2` (stereo partly shown) [Compound 7, 3-O-(Hemisuccinyl)-methyl ursolate], the “inhibition of ATP levels compared to the negative control” value in the data set with N. fowleri trophozoites [1] turned out to be 89.5%. In data set [2] (Naegleria fowleri, ATCC30808, mean ± SD), 36.6 ± 1.49 µM corresponded to half-maximal inhibition (IC50). In data set [2] (selectivity index vs murine macrophages J774), the “N. fowleri ATCC 30808 SI (CC50/IC50), cyst stage” value amounted to 4.78. The “actin cytoskeleton (phalloidin-TRITC)” value with N. fowleri trophozoites [3] is “reduced actin signal intensity”. Further, in the data set on N. fowleri trophozoites [4], the “plasma membrane integrity (SYTOX Green fluorescence)” value is “significant membrane disruption”. Further, the half-maximal cytotoxic concentration (CC50) at 24 h in data set [5] is more than 175 µM. Besides, the “intracellular ROS accumulation (CellROX Deep Red)” value with N. fowleri trophozoites [6] is given as “significantly increased ROS”.
